Reference: patent US5663196A, “Methods for treating neoplastic disorders” (Boston University, priority 1993, dated 1997)
Like-named read-outs stand apart in the source and are kept apart here.

Experiments:
Assay type in all cases: cell-based
[1] = tested on: EL-4 cells (type T lymphoma); test: Trypan Blue cell viability, EL-4; settings: Mus musculus, EL4, read-out: Trypan Blue Cell Viability (%)
Excerpt: (§1) 1) The Trypan Blue Dye Exclusion Test for monitoring ceil viability as described by Phillips, H. J., in Tissue Culture Methods and Applications; Kruse, P. F., Jr., Patterson, M. K., Eds.; Academic Press, New York, 1973, 406, and by Wu, Y. W., Chik, L. L., Knazek, R. A. Cancer Research 1989, 49, 3754. The results of this assay are expressed as a percentage of viable cells:
(§2) [% viable cells]=[no. of alive cells]/[total no. of cells]×100
(§3) where the total no. cells=dead cells+alive cells. The results are compared directly with an untreated control, which typically show a three-to-four-fold increase for cancer cells, and a two-fold increase for normal cells. Treatments resulting in [% viable cells] of <30% are considered cytotoxic. Therefore, the trypan blue dye exclusion test was used to assess the number of dead and alive cells using various cell lines upon treatment with the crude and purified agent. This test provides a simple clue to the acute or late onset of a cytotoxic response. Readings for this and all other in vitro assays were taken 48 hours after treatment with the unpurified agent, and also […] after treatment for the purified agent. Thus, the trypan blue dye exclusion assay functions to confirm whether or not the cells were viable at the time readings were taken for other bioassays.

[2] = tested on: BW (BW5147) lymphoma cells; test: Trypan Blue cell viability, BW (BW5147); settings: Mus musculus, read-out: Trypan Blue Cell Viability (%)
Excerpt: as §1, §2, §3
(§4) With the preferred purified active agent in hand, ^3 H-thymidine incorporation and trypan blue assays were initially performed at different dosages using LK and BW lymphoma ceil lines in order to confirm the activity of the preferred purified active agent, and to bracket the active concentration range for the preferred purified active agent. With a molecular weight of 328, a 1 μg/mL solution corresponds to 3 μM concentration. In addition, the time course of cell viability in the trypan blue assay was also monitored in order to best optimize subsequent assays to ensure that the cells were still viable at the time of measurement, and to ensure a nontoxic response of the cells to the agent. Toxicity of the agent would have been observed as cell death within 2 hours. The trypan blue assays (Table 7), run at 30 μM and 3 μM of purified agent (10 and 1 μg/mL, respectively), indicated excellent cell viability after 24 hours, though with a significant drop in viability after 48 hours at a 30 μM dose of preferred purified active agent. Consequently the results of the in vitro assays employing purified agent were all recorded after 24 hours. In the ^3 H-thymidine incorporation assay (Table 8), dosages ranging from 0.1 to 250 μg/mL were examined.

[3] = tested on: LK lymphoma cells; test: Trypan Blue cell viability, LK; settings: Mus musculus, read-out: Trypan Blue Cell Viability (%)
Excerpt: as §1, §2, §3, §4

[4] = tested on: P815 cells (mastocytoma); test: Trypan Blue cell viability, P815; settings: Mus musculus, P815, read-out: Trypan Blue Cell Viability (%)
Excerpt: as §1, §2, §3

[5] = tested on: C7 cloned T-cells; test: Trypan Blue cell viability, C7; settings: Mus musculus, read-out: Trypan Blue Cell Viability (%)
Excerpt: as §1, §2, §3
Each of these three fractions were then tested in the trypan blue and ^3 H-thymidine incorporation assays along with the original CsA as a control, against the LS cell line, which was the most sensitive of the cancer lines (Tables 3 and 4). […] The results of the trypan blue and ^3 H-thymidine incorporation assays against the three cell lines are compiled in Tables 5a-5f.

[6] = tested on: CT26 cells (colon adenocarcinoma); test: Trypan Blue cell viability, CT26; settings: Mus musculus, CT26, read-out: Trypan Blue Cell Viability (%)
Excerpt: as §1, §2, §3
(§5) The final in vitro assays performed with the preferred purified active agent were intended to examine the scope of the activity in the trypan blue assay against a wider range of tumor cell lines (Tables 10 and 11). These cell lines included a […] lymphoma BW8767, a BW mutant which is more resistant than the BW cell lines used in other assays, as evidenced by the results in Tables 10 and 11.

[7] = tested on: RDM-4 cells (type T lymphoma); test: Trypan Blue cell viability, RDM-4; settings: Mus musculus, read-out: Trypan Blue Cell Viability (%)
Excerpt: as §1, §2, §3, §5

SMILES: CC1=C2C(=O)C=C(CO)[C@@H]2[C@H]2OC(=O)[C@@H](C)[C@@H]2[C@@H](O)C1 [11β,13-dihydrolactucin, 3,6-dimethyl-4-hydroxy-9-hydroxymethyl-3,3a,4,5,9a,9b-hexahydroazuleno[4,5-b]furan-2,7-dione]
- viability at 0.1 µg/mL [1]: 100%
- viability at 0.5 µg/mL [1]: 100%
- viability at 1 µg/mL [1]: 100%
- viability at 10 µg/mL [1]: 100%
- viability at 1 µg/mL ([2]; 2 h): 100%
- viability at 10 µg/mL ([2]; 2 h): 100%
- viability at 1 µg/mL ([2]; 5 h): 100%
- viability at 10 µg/mL ([2]; 5 h): 100%
- viability at 1 µg/mL ([2]; 12 h): 100%
- viability at 10 µg/mL ([2]; 12 h): 100%
- viability at 1 µg/mL ([2]; 24 h): 100%
- viability at 10 µg/mL ([2]; 24 h): 85%
- viability at 1 µg/mL ([2]; 36 h): 90%
- viability at 10 µg/mL ([2]; 36 h): 72%
- viability at 1 µg/mL ([2]; 48 h): 90%
- viability at 10 µg/mL ([2]; 48 h): 60%
- viability at 0.1 µg/mL [2]: 100%
- viability at 0.5 µg/mL [2]: 100%
- viability at 1 µg/mL [2]: 100%
- viability at 10 µg/mL [2]: 80%
- viability at 1 µg/mL ([3]; 2 h): 100%
- viability at 10 µg/mL ([3]; 2 h): 100%
- viability at 1 µg/mL ([3]; 5 h): 100%
- viability at 10 µg/mL ([3]; 5 h): 100%
- viability at 1 µg/mL ([3]; 12 h): 100%
- viability at 10 µg/mL ([3]; 12 h): 100%
- viability at 1 µg/mL ([3]; 24 h): 100%
- viability at 10 µg/mL ([3]; 24 h): 85%
- viability at 1 µg/mL ([3]; 36 h): 90%
- viability at 10 µg/mL ([3]; 36 h): 72%
- viability at 1 µg/mL ([3]; 48 h): 90%
- viability at 10 µg/mL ([3]; 48 h): 60%
- viability at 0.1 µg/mL [4]: 100%
- viability at 0.5 µg/mL [4]: 100%
- viability at 1 µg/mL [4]: 100%
- viability at 10 µg/mL [4]: 80%
- viability at 0.1 µg/mL [5]: 100%
- viability at 0.5 µg/mL [5]: 100%
- viability at 1 µg/mL [5]: 100%
- viability at 10 µg/mL [5]: 90%
- viability at 0.1 µg/mL [6]: 100%
- viability at 0.5 µg/mL [6]: 100%
- viability at 1 µg/mL [6]: 100%
- viability at 10 µg/mL [6]: 100%
- viability at 0.1 µg/mL [7]: 100%
- viability at 0.5 µg/mL [7]: 100%
